Test [1] concerns APRE-19 cells and human-tissue-derived RPE cells. Description: P-K8 immunostaining: reorganization of K8 around the nucleus under paraquat oxidative stress. The class given is cell-based. An excerpt: The ARPE-19 cells are cell lines that have been genetically engineered for infinite proliferation for experimental use. However, as the human-tissue-derived RPE cells were obtained by culturing RPE tissue isolated from the human eye without any genetic engineering they were used for experiments under conditions similar to those of human RPE.
Thereafter, P-K8 (green fluorescence) of the cells was immunostained (Abcam; ab32579). The nucleus was stained (Invitrogen; T3605) using TOPRO-3 (blue fluorescence) (FIG. 2C).
P-K8 (green fluorescence) of the cells was immunostained (FIG. 4B).
(§1) The same procedures as in Example 3 were performed, and 10 μM gefitinib was used in lieu of 50 nM trametinib.

For another test, the system named is mouse retinal cells. The test is described as follows: NaIO3-induced retinal degeneration in mouse, ZO-1 immunohistochemical analysis. It counts as in vivo. Particulars: 20 mg/kg NaIO3 intravenously, 10 mg/kg PD98059, sacrificed 2 weeks after administration, FIG. 3C. On the procedure: 7- to 9-week-old mouse retinal cells were subjected to immunohistochemical analysis (Abcam; ab59720) for a tight junction marker ZO-1 (green fluorescence). A saline-treated group was a control group with intravenous administration of 0.9% NaCl. A mouse group administered intravenously with 20 mg/kg of NaIO3 was selectively treated with 10 mg/kg of PD98059. Animal groups were sacrificed 2 weeks after intravenous administration. The fluorescence images were obtained through a confocal microscope (FIG. 3C).

The next test concerns ARPE-19 cells. Description: Cell motility using a Transwell insert. Particulars: 400 μM paraquat and 20 μM PD98059 for 36 hr, FIG. 3B. It counts as cell-based, human. As to the method: Also, the cell motility was analyzed using a Transwell insert in ARPE-19 cells selectively treated with 400 μM paraquat and 20 μM PD98059 for 36 hr. As the migrated cells were stained with methylene blue it was confirmed by checking an image (FIG. 3B).

The test system of test [2] is APRE-19 cells and human-tissue-derived RPE cells. Description: E-cadherin / vimentin immunostaining: epithelial-mesenchymal transition under paraquat oxidative stress. Particulars: for E-cadherin expression / vimentin filaments: APRE-19 and human-tissue-derived RPE cells. It counts as cell-based. On the procedure: E-cadherin (green fluorescence) and vimentin (red fluorescence) in the cells were immunostained (cell signaling; 7832s). The nucleus was stained using TOPRO-3 (blue fluorescence) (FIG. 3A).
Thereafter, E-cadherin (green fluorescence) and vimentin (red fluorescence) in the cells were immunostained. The nucleus was visualized using TOPRO-3 (blue fluorescence) (FIG. 4C).
as §1

The test system of test [3] is keratin 8 (K8) phosphorylation. Description: Western blotting of P-ERK1/2 and P-K8 in paraquat-treated retinal pigment epithelial cells. It counts as cell-based, human. On the procedure:
In the bar graph analyzed from the image of western blotting, the expression levels of P-ERK and P-K8 were calculated (FIG. 2B).
In the bar graph analyzed from the image of western blotting, the expression levels of P-ERK and P-K8 were calculated (FIG. 4A).
as §1
A general note: Immunoblotting shows a protein as a band on a membrane.

Setting [4] is: 400 μM paraquat and 20 μM PD98059 for 48 hr, FIG. 3A.
The mark [5] stands for this setting: APRE-19 cells, 400 μM paraquat 24 hr, then 20 μM PD98059 24 hr, FIG. 2B.
Where [6] appears, read: 400 μM paraquat and 10 μM gefitinib for 48 hr, FIG. 5C.

Molecules are shown by their SMILES. Like-named read-outs stand apart in the source and are kept apart here.

Take `COc1cccc(-c2cc(=O)c3ccccc3o2)c1N` [PD98059]: the “reorganization of K8 around the nucleus” value in test [1] (APRE-19 and human-tissue-derived RPE cells, 400 μM paraquat and 20 μM PD98059 for 36 hr, FIG. 2C) was “inhibited reorganization of K8 around the nucleus”. Further, the “degeneration of retinal cells (tight junction marker ZO-1)” value in the test with mouse retinal cells was “restored the degeneration of retinal cells”. Further, the cell motility entry in the test on ARPE-19 cells is reported as “reduced increased cell motility”. In addition, in test [2] (setting [4]), the epithelial-mesenchymal transition entry is given as “reduce epithelial-mesenchymal transition”, the E-cadherin expression entry was “recovered E-cadherin lost” and the vimentin filaments result is “inhibited an increase in vimentin filaments”. Further, in test [3] (setting [5]), the “K8 phosphorylation due to oxidative stress (P-ERK and P-K8 expression levels)” value is reported as “inhibited K8 phosphorylation”; the “expression of LC3 I/II, the autophagy marker” value is “not involved in the expression of LC3 I/II”. In addition, the “effect of inhibiting K8 phosphorylation due to oxidative stress (P-K8 expression level)” value in test [3] (APRE-19 cells, 400 μM paraquat 24 hr, then 20 μM PD98059 24 hr, compared to 10 μM SP600125, FIG. 2A) is listed as “superior”.

Regarding `COc1cc2ncnc(Nc3ccc(F)c(Cl)c3)c2cc1OCCCN1CCOCC1` [gefitinib], the “reorganization of K8 around the nucleus” value in test [1] (APRE-19 cells, 400 μM paraquat and 10 μM gefitinib for 36 hr, FIG. 5B) is listed as “inhibited reorganization of K8 around the nucleus”. In test [2] (setting [6]), the epithelial-mesenchymal transition entry is recorded as “reduce epithelial-mesenchymal transition”, the E-cadherin expression result is recorded as “recovered E-cadherin lost” and the vimentin filaments entry is listed as “inhibited the increase in vimentin filaments”. Further, the “K8 phosphorylation due to oxidative stress (P-ERK and P-K8 expression levels)” value in test [3] is “inhibited phosphorylation of K8”.

For the origin of these results see patent US10857154B2, “Pharmaceutical composition containing keratin 8 phosphorylation inhibitor for preventing or treating macular degeneration, and method for screening macular degeneration medicine” (priority 2016, dated 2020).
